The results in this text go back to DBAASP.

Assay in all cases: ≥ marks a high value that may be exact or a test limit, other limits are often not marked, values filed in µg/mL are converted to µM
Experiment [1] has as its system Fusarium graminearum PH-1.
The subject of experiment [2] is Bacillus cereus ATCC 11778.
Experiment [3] has as its system Bacillus subtilis CCT 2576.
Experiment [4] relates to Bacillus thuringiensis ATCC 10792.
Experiment [5] relates to Enterococcus faecium CCT 5079.
Experiment [6] concerns Enterococcus hirae ATCC 10541.
Experiment [7] has as its system Escherichia coli ATCC 11775.
Experiment [8] concerns Escherichia coli ATCC 25922.
For experiment [9], the system named is Escherichia coli CCT 1457.
The subject of experiment [10] is Micrococcus luteus ATCC 4698.
Experiment [11] concerns Pseudomonas aeruginosa ATCC 13388.
For experiment [12], the system named is Pseudomonas aeruginosa ATCC 15422.
Experiment [13] relates to Salmonella enterica subsp. enterica serovar Choleraesuis ATCC 10708.
In experiment [14] the test system is Salmonella enterica subsp. enterica serovar Typhimurium ATCC 14028.
Experiment [15] relates to Staphylococcus aureus ATCC 25923.
For experiment [16], the system named is Staphylococcus aureus ATCC 6538.
For experiment [17], the system named is Staphylococcus aureus CCT 2580.
Experiment [18] concerns Staphylococcus aureus CCT 6538.
Experiment [19] relates to Staphylococcus epidermidis ATCC 12228.
The subject of experiment [20] is Streptococcus mutans AU159.
For experiment [21], the system named is Streptococcus pneumoniae ATCC 11733.
A further experiment concerns Bacillus subtilis PY79.
The subject of experiment [22] is Escherichia coli DH5alpha.
The test system of experiment [23] is Klebsiella pneumoniae ATCC 700603.
Experiment [24] relates to Pseudomonas aeruginosa PA14.
The subject of experiment [25] is Pseudomonas aeruginosa PAO1.
Experiment [26] concerns Staphylococcus aureus ATCC 6538P.

Converted amounts (≈) assume the structure as drawn.

Take `NC(N)=NCCC[C@H](NC(=O)[C@H](CCCN=C(N)N)NC(=O)[C@H](CCCN=C(N)N)NC(=O)[C@H](Cc1ccccc1)NC(=O)CNC(=O)[C@@H](N)CCCN=C(N)N)C(=O)O` [RGFRRR]: in experiment [1], the MIC (usually the smallest concentration in the dilution series that meets the test's criterion for growth inhibition) came to 12 µM (≈ 10.2 µg/mL).
For the compound `CC[C@H](C)[C@H](N)C(=O)N[C@@H](CC(N)=O)C(=O)N[C@@H](Cc1c[nH]c2ccccc12)C(=O)N[C@@H](CC(C)C)C(=O)N[C@@H](CCCCN)C(=O)N[C@@H](C)C(=O)N[C@@H](CCCCN)C(=O)N[C@@H](CCCCN)C(=O)N[C@H](C(=O)N[C@@H](C)C(=O)NCC(=O)N[C@@H](CCSC)C(=O)N[C@H](C(=O)N[C@@H](CC(C)C)C(N)=O)[C@@H](C)CC)C(C)C` [INWLKAKKVAGMIL], the MIC in experiment [2] is 10.1 µM (≈ 16 µg/mL); in [3] it was 7.38 µM (≈ 11.7 µg/mL); in [4], no less than 78.9 µM; in experiment [5], no less than 158 µM; in experiment [6], no less than 39.7 µM; in experiment [7], no less than 39.7 µM. Besides, the MIC is 14.8 µM (≈ 23.4 µg/mL) in experiment [8]; 19.6 µM (≈ 31 µg/mL) in [9]; 19.6 µM (≈ 31 µg/mL) in experiment [10]; no less than 158 µM in experiment [11]; no less than 78.9 µM in experiment [12]; no less than 315 µM in [13]. Besides, the MIC in experiment [14] was 315 µM (≈ 500 µg/mL); in experiment [15] it was 39.7 µM (≈ 63 µg/mL); in experiment [16] it was 27.1 µM (≈ 42.9 µg/mL); in experiment [17] it was 27.1 µM (≈ 43 µg/mL); in experiment [18], no less than 39.7 µM; in [19] it was 39.7 µM (≈ 63 µg/mL). Moreover, the MIC in experiment [20] is no less than 315 µM; in experiment [21], no less than 78.9 µM.
With `CC(=O)NC(CC(C)C)C(=O)NC(CCCNC(=N)N)C(=O)NC(C(=O)NC(CCCNC(=N)N)C(=O)NC(CC(C)C)C(=O)NC(C)C(=O)NC(CO)C(=O)NC(Cc1c[nH]cn1)C(=O)NC(CC(C)C)C(=O)NC(CCCNC(=N)N)C(=O)NC(CCCCN)C(=O)NC(CC(C)C)C(=O)NC(CCCNC(=N)N)C(=O)NC(CCCCN)C(=O)NC(CCCNC(=N)N)C(=O)NC(CC(C)C)C(=O)NC(CC(C)C)C(N)=O)C(C)C` (stereo not drawn) [LRVRLASHLRKLRKRLL], the MIC is no less than 100 µM against Bacillus subtilis PY79; 6.25 µM (≈ 13.6 µg/mL) in [8]; 12.5 µM (≈ 27.1 µg/mL) in experiment [22]; 3.12 µM (≈ 6.77 µg/mL) in [23]; no less than 50 µM in experiment [24]; 25 µM (≈ 54.2 µg/mL) in experiment [25]. For the same compound, in [26], the MIC was no less than 100 µM.
